The values that follow come from article PMC7690608, “Combination Therapy of High-Dose Rabeprazole Plus Metronomic Capecitabine in Advanced Gastro-Intestinal Cancer: A Randomized Phase II Trial” (Cancers, 2020).

The test system of one data set is tumor pH. Also noted: method as in PMID 19876915. Conditions: in vivo experiments; tumor pH shifts toward neutrality after treatment; cited from earlier work.
On the set-up of data set [1]: species or system patients. As to conditions: in vivo. How it is done:
This is a randomized phase II study designed to detect the advantage of adding rabeprazole to mCAP as palliative treatment for patients with metastatic GI cancer, as previously described. Eligible patients were randomly assigned 1:1 to capecitabine, 1500 mg/daily, continuously with or without rabeprazole 1.5 mg/kg bid, three days a week. The randomization was computer generated by a statistician not involved in data collection, who was called by phone at the time of assignment. The protocol was not interrupted until progression of disease, unacceptable toxicity or death occurrence. This study was designed with the primary endpoint of 3-months progression-free survival (PFS) rate. […] Safety was evaluated by considering overall incidence and severity of adverse events (AEs) as well as the seriousness and drug-relatedness of each event (CTCAE v.4.03). […] Plasma concentrations of capecitabine and its metabolites, 5′-deoxy-5′-fluorouridine (5′-DFUR) and 5- fluorouracil (5-FU), were evaluated in order to assess the potential interaction between capecitabine and rabeprazole. […] Plasma samples, calibration standard samples and quality-control (QC) samples were analyzed using a high-performance liquid chromatography (HPLC) tandem mass spectrometry (LC/MS-MS) analytical method. […]

In data set [2] the test system is metastatic gastrointestinal (GI) cancer. The data set is described as follows: Randomized phase II trial: efficacy (3-months PFS, PFS, clinical benefit, OS; RECIST 1.1). It counts as in vivo, patients. The source says:
In addition, patients had to be 18 years of age or older, to have adequate bone-marrow, liver, and renal function and to have an Eastern Cooperative Oncology Group (ECOG) performance status ≤2. Meanwhile, the presence of one of the following criteria excluded patients’ participation to the study protocol: GI tumors that can be treated with standard treatments, cardiovascular or CNS disease, previously untreated CNS metastases, pregnant or breast-feeding patients, organ dysfunctions that usually hinder the use of cytotoxic drugs, and/or substance abuse and any other psychological condition that may interfere with the evaluation of study results. All patients were randomized and treated at the Oncology Unit of Sant’Andrea University Hospital, Rome. Every cancer patient is commonly managed at our Institution by a multidisciplinary team, who provides for the starting and the following clinical evaluations.
This is a randomized phase II study designed to detect the advantage of adding rabeprazole to mCAP as palliative treatment for patients with metastatic GI cancer, as previously described. Eligible patients were randomly assigned 1:1 to capecitabine, 1500 mg/daily, continuously with or without rabeprazole 1.5 mg/kg bid, three days a week. The randomization was computer generated by a statistician not involved in data collection, who was called by phone at the time of assignment. The protocol was not interrupted until progression of disease, unacceptable toxicity or death occurrence. This study was designed with the primary endpoint of 3-months progression-free survival (PFS) rate. PFS was defined as the length of time from the first dose of study drug to the date of the first documented disease progression according to the Response Evaluation Criteria in Solid Tumors (RECIST), version 1.1, or death for any reason, with censoring at the date of the last contact for alive patients. Secondary endpoints included the evaluation of clinical benefit (CB), which reflects the proportion of patients with complete response (CR), partial response (PR) and stable disease (SD) and overall survival (OS). The crossover between treatment groups was not allowed before the final analysis of the primary end point. Safety was evaluated by considering overall incidence and severity of adverse events (AEs) as well as the seriousness and drug-relatedness of each event (CTCAE v.4.03). AEs with an onset during treatment, or within 28 days after the last dose of the study drug, were considered as having occurred during treatment. We grouped anemia, neutropenia, and thrombocytopenia in hematological toxicity; diarrhea, nausea, and vomiting in gastrointestinal toxicity. In the two protocol arms, plasma concentrations of capecitabine and its metabolites were determined at 2 h from the assumption of two tablet of capecitabine (1000 mg), corresponding to the tmax of the drug. Plasma concentrations of capecitabine and its metabolites, 5′-deoxy-5′-fluorouridine (5′-DFUR) and 5- fluorouracil (5-FU), were evaluated in order to assess the potential interaction between capecitabine and rabeprazole. Blood samples (7 mL) were collected in vacutainers containing ethylenediaminetetraacetic acid (EDTA) as anticoagulant, then centrifuged and the plasma samples were stored at −20 °C until analysis. […] Plasma samples, calibration standard samples and quality-control (QC) samples were analyzed using a high-performance liquid chromatography (HPLC) tandem mass spectrometry (LC/MS-MS) analytical method. […]

Data set [3] relates to patients with metastatic GI cancer. The data set is described as follows: Randomized phase II trial: safety, adverse events (CTCAE v.4.03). As to conditions: in vivo. How it is done: This is a randomized phase II study designed to detect the advantage of adding rabeprazole to mCAP as palliative treatment for patients with metastatic GI cancer, as previously described. Eligible patients were randomly assigned 1:1 to capecitabine, 1500 mg/daily, continuously with or without rabeprazole 1.5 mg/kg bid, three days a week. The randomization was computer generated by a statistician not involved in data collection, who was called by phone at the time of assignment. The protocol was not interrupted until progression of disease, unacceptable toxicity or death occurrence. This study was designed with the primary endpoint of 3-months progression-free survival (PFS) rate. PFS was defined as the length of time from the first dose of study drug to the date of the first documented disease progression according to the Response Evaluation Criteria in Solid Tumors (RECIST), version 1.1, or death for any reason, with censoring at the date of the last contact for alive patients. Secondary endpoints included the evaluation of clinical benefit (CB), which reflects the proportion of patients with complete response (CR), partial response (PR) and stable disease (SD) and overall survival (OS). The crossover between treatment groups was not allowed before the final analysis of the primary end point. Safety was evaluated by considering overall incidence and severity of adverse events (AEs) as well as the seriousness and drug-relatedness of each event (CTCAE v.4.03). AEs with an onset during treatment, or within 28 days after the last dose of the study drug, were considered as having occurred during treatment. We grouped anemia, neutropenia, and thrombocytopenia in hematological toxicity; diarrhea, nausea, and vomiting in gastrointestinal toxicity. In the two protocol arms, plasma concentrations of capecitabine and its metabolites were determined at 2 h from the assumption of two tablet of capecitabine (1000 mg), corresponding to the tmax of the drug. Plasma concentrations of capecitabine and its metabolites, 5′-deoxy-5′-fluorouridine (5′-DFUR) and 5- fluorouracil (5-FU), were evaluated in order to assess the potential interaction between capecitabine and rabeprazole. Blood samples (7 mL) were collected in vacutainers containing ethylenediaminetetraacetic acid (EDTA) as anticoagulant, then centrifuged and the plasma samples were stored at −20 °C until analysis. Plasma samples were collected at the start of the study, after 4 and 8 weeks of treatment. Plasma samples, calibration standard samples and quality-control (QC) samples were analyzed using a high-performance liquid chromatography (HPLC) tandem mass spectrometry (LC/MS-MS) analytical method. Plasma concentrations were reported in µg/mL (mean values and standard deviation (SD)).
The study was designed to have 90% power to detect a hazard ratio for the 3-months PFS of 0.60 (a 40% reduction in risk) in the mCAP-rabeprazole group as compared with the mCAP group, with a one-sided type I error rate of 0.05. Given the treatment assignment ratio of 1:1, we calculated that 66 patients had to be enrolled in the study, and at least 60 events (progression disease) would have been required for the primary analysis. For PFS and OS, the stratified log-rank test was used independently at the 2-sided, 0.05 level of significance, and Kaplan–Meier estimates performed for the graphic representation of both findings. An exact logistic regression model was used to test for a difference in CB between treatments, with the model adjusted by the same factors used to stratify the primary analysis of PFS. Adverse events and laboratory abnormalities were summarized for all patients who received at least one dose of study drug. The χ^2–test and t-test for unpaired data were applied to compare frequencies and means, respectively. SPSS statistical software, Version 24 (SPSS Inc. Chicago, IL, USA) was used.

Data set [4] relates to early stage colorectal cancer. Further details: method as in PMID 26803708. Conditions: cited from earlier work.

Where two headings read alike, the source gives them in different places.

In the case of `COc1ccc2nc([S@@+]([O-])Cc3ncc(C)c(OC)c3C)[nH]c2c1` [esomeprazole], the “time for tumor pH to return to acidity after treatment discontinuation” value with tumor pH was at most 48 h.

For the compound `O=c1[nH]cc(F)c(=O)[nH]1` [5-FU, 5-fluorouracil], the “plasma values in the pre-dose analysis” value in data set [1] is given as “below zero”.

With `CCCCCOC(=O)Nc1nc(=O)n([C@@H]2O[C@H](C)[C@@H](O)[C@H]2O)cc1F` [mCAP, capecitabine], in data set [2] (Kaplan–Meier), the “median OS” value is given as 6.0 (95%CI 4.0–7.9) months and the “median PFS” value turned out to be 3.0 months. Besides, in data set [2] (human, in vivo), the “3-year OS rate” value was found to be 12% and the “patients who reported a clinical benefit (CB: CR+PR+SD)” value was 31%. For the same compound, the “patients who experienced a progression of the disease at the 3-months evaluation (primary end-point)” value in data set [2] (intention-to-treat, mCAP 1500 mg/daily with or without rabeprazole 1.5 mg/kg bid three days a week) turned out to be 57%. In data set [3] (human), the “Gastrointestinal G1, patients” value turned out to be 14%; the “Gastrointestinal G2, patients” value is on record as 9%; the “Hand-foot syndrome G1, patients” value worked out at 3%; the “Hand-foot syndrome G2, patients” value was 11%. In data set [3] (human), the “Hematological toxicity G1, patients” value is listed as 6%; the “Hematological toxicity G2, patients” value was 6%; the Nausea was found to be 1 n; the Neutropenia was found to be 0 n. In addition, the “adverse events of any grade, patients” value in data set [3] (human) is given as 29%. Also, the severe adverse events result in data set [3] is listed as “no severe adverse event”. Further, the “plasma values in the pre-dose analysis” value in data set [1] is “below zero”. For the same compound, the Five-year recurrence-free survival in data set [4] (adjuvant capecitabine with concurrent PPIs consumption) is listed as 74%. In data set [4] (adjuvant capecitabine without concurrent PPIs consumption), the Five-year recurrence-free survival is listed as 83%. The “HR for five-year recurrence-free survival” value in data set [4] (with vs. without concurrent PPIs, p = 0.03) was 1.89.
